Test results reported in PubChem BioAssay (NCI).
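Growth conditions: 96-well plates. Treatment: test compound, 48 hours, 5 concentrations. Analysis: linear interpolation between bracketing concentrations; unreached endpoints set to highest concentration. At the GI50, growth is halved. Definition used: TGI = concentration required for complete inhibition of growth.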

Columns and labels:
Experiment in all cases: growth of human tumour cells (NCI), 48 h
U251 CNS = system: U251 CNS
SR leukemia = system: SR leukemia
SK-OV-3 ovarian = system: SK-OV-3 ovarian
SK-MEL-5 melanoma = system: SK-MEL-5 melanoma
MCF7 breast = system: MCF7 breast
HL-60(TB) leukemia = system: HL-60(TB) leukemia
SF-268 CNS = system: SF-268 CNS
COLO 205 colon = system: COLO 205 colon
A549 NSCLC = system: A549 NSCLC
PC-3 prostate = system: PC-3 prostate
OVCAR-5 ovarian = system: OVCAR-5 ovarian
M14 melanoma = system: M14 melanoma
A498 renal = system: A498 renal
HCC-2998 colon = system: HCC-2998 colon
UACC-257 melanoma = system: UACC-257 melanoma
SK-MEL-2 melanoma = system: SK-MEL-2 melanoma
HS 578T breast = system: HS 578T breast
NCI-H522 lung = system: NCI-H522 lung
IGROV1 ovarian = system: IGROV1 ovarian
NCI-H226 lung = system: NCI-H226 lung
ACHN renal = system: ACHN renal
SN12C renal = system: SN12C renal
SF-295 CNS = system: SF-295 CNS
SF-539 CNS = system: SF-539 CNS
NCI/ADR-RES ovarian = system: NCI/ADR-RES ovarian
CCRF-CEM leukemia = system: CCRF-CEM leukemia
OVCAR-8 ovarian = system: OVCAR-8 ovarian
HCT-116 colon = system: HCT-116 colon
K-562 leukemia = system: K-562 leukemia
BT-549 breast = system: BT-549 breast
SK-MEL-28 melanoma = system: SK-MEL-28 melanoma
MDA-MB-435 = system: MDA-MB-435
NCI-H23 lung = system: NCI-H23 lung
HOP-62 NSCLC = system: HOP-62 NSCLC
HOP-92 NSCLC = system: HOP-92 NSCLC
MDA-MB-231 breast = system: MDA-MB-231 breast
CAKI-1 renal = system: CAKI-1 renal
SW-620 colon = system: SW-620 colon
OVCAR-3 ovarian = system: OVCAR-3 ovarian
OVCAR-4 ovarian = system: OVCAR-4 ovarian
RXF 393 renal = system: RXF 393 renal
NCI-H460 lung = system: NCI-H460 lung
HCT-15 colon = system: HCT-15 colon
LOX IMVI melanoma = system: LOX IMVI melanoma
UACC-62 melanoma = system: UACC-62 melanoma
DU-145 prostate = system: DU-145 prostate
EKVX NSCLC = system: EKVX NSCLC
786-0 renal = system: 786-0 renal
HT29 colon = system: HT29 colon
KM12 colon = system: KM12 colon
SNB-19 CNS = system: SNB-19 CNS
RPMI-8226 leukemia = system: RPMI-8226 leukemia
MALME-3M melanoma = system: MALME-3M melanoma
UO-31 renal = system: UO-31 renal
SNB-75 CNS = system: SNB-75 CNS
TK-10 renal = system: TK-10 renal
T-47D breast = system: T-47D breast
MOLT-4 leukemia = system: MOLT-4 leukemia

SMILES: O=C(CNc1c(Cl)cccc1Cl)Nc1ccc(-c2nc3ccccc3s2)cc1
- GI50 (U251 CNS): 2.06 µM
- TGI (U251 CNS): 4.65 µM
- GI50 (SR leukemia): 0.797 µM
- TGI (SR leukemia): > 23.1 µM
- GI50 (SK-OV-3 ovarian): 9.11 µM
- TGI (SK-OV-3 ovarian): 70.6 µM
- GI50 (SK-MEL-5 melanoma): 1.61 µM
- TGI (SK-MEL-5 melanoma): 3.3 µM
- GI50 (MCF7 breast): 0.0913 µM
- TGI (MCF7 breast): 5.7 µM
- GI50 (HL-60(TB) leukemia): 2.37 µM
- TGI (HL-60(TB) leukemia): 7.5 µM
- GI50 (SF-268 CNS): 2.4 µM
- TGI (SF-268 CNS): 6.44 µM
- GI50 (COLO 205 colon): 2.33 µM
- TGI (COLO 205 colon): 4.81 µM
- GI50 (A549 NSCLC): 5.83 µM
- TGI (A549 NSCLC): 26.6 µM
- GI50 (PC-3 prostate): 1.66 µM
- TGI (PC-3 prostate): 3.52 µM
- GI50 (OVCAR-5 ovarian): 2.53 µM
- TGI (OVCAR-5 ovarian): 7.79 µM
- GI50 (M14 melanoma): 2.05 µM
- TGI (M14 melanoma): 5.52 µM
- GI50 (A498 renal): 8.93 µM
- TGI (A498 renal): 23.4 µM
- GI50 (HCC-2998 colon): 2.11 µM
- TGI (HCC-2998 colon): 4.29 µM
- GI50 (UACC-257 melanoma): 4.27 µM
- TGI (UACC-257 melanoma): 16.6 µM
- GI50 (SK-MEL-2 melanoma): 3.32 µM
- TGI (SK-MEL-2 melanoma): 12.4 µM
- GI50 (HS 578T breast): 5.11 µM
- TGI (HS 578T breast): 67.8 µM
- GI50 (NCI-H522 lung): 1.56 µM
- TGI (NCI-H522 lung): 3.61 µM
- GI50 (IGROV1 ovarian): 2.3 µM
- TGI (IGROV1 ovarian): 5.85 µM
- GI50 (NCI-H226 lung): 2.17 µM
- TGI (NCI-H226 lung): 5.72 µM
- GI50 (ACHN renal): 1.97 µM
- TGI (ACHN renal): 3.93 µM
- GI50 (SN12C renal): 2.31 µM
- TGI (SN12C renal): 7.1 µM
- GI50 (SF-295 CNS): 15.6 µM
- TGI (SF-295 CNS): 30.2 µM
- GI50 (SF-539 CNS): 1.88 µM
- TGI (SF-539 CNS): 3.62 µM
- GI50 (NCI/ADR-RES ovarian): 3.22 µM
- TGI (NCI/ADR-RES ovarian): 9.89 µM
- GI50 (CCRF-CEM leukemia): 0.485 µM
- GI50 (OVCAR-8 ovarian): 3.01 µM
- TGI (OVCAR-8 ovarian): > 29.8 µM
- GI50 (HCT-116 colon): 1.98 µM
- TGI (HCT-116 colon): 4.93 µM
- GI50 (K-562 leukemia): 1.24 µM
- TGI (K-562 leukemia): > 33.9 µM
- GI50 (BT-549 breast): 1.72 µM
- TGI (BT-549 breast): 4.64 µM
- GI50 (SK-MEL-28 melanoma): 2.61 µM
- TGI (SK-MEL-28 melanoma): 7.31 µM
- GI50 (MDA-MB-435): 2.64 µM
- TGI (MDA-MB-435): 10.9 µM
- GI50 (NCI-H23 lung): 2.06 µM
- TGI (NCI-H23 lung): 4.58 µM
- GI50 (HOP-62 NSCLC): 6.8 µM
- TGI (HOP-62 NSCLC): 21.3 µM
- GI50 (HOP-92 NSCLC): 1.66 µM
- TGI (HOP-92 NSCLC): 4.45 µM
- GI50 (MDA-MB-231 breast): 2.67 µM
- TGI (MDA-MB-231 breast): 7.31 µM
- GI50 (CAKI-1 renal): 2.26 µM
- TGI (CAKI-1 renal): 5.79 µM
- GI50 (SW-620 colon): 2.2 µM
- TGI (SW-620 colon): 4.9 µM
- GI50 (OVCAR-3 ovarian): 1.97 µM
- TGI (OVCAR-3 ovarian): 3.73 µM
- GI50 (OVCAR-4 ovarian): 1.95 µM
- TGI (OVCAR-4 ovarian): 5.19 µM
- GI50 (RXF 393 renal): 4.15 µM
- TGI (RXF 393 renal): 9.73 µM
- GI50 (NCI-H460 lung): 2.69 µM
- TGI (NCI-H460 lung): 7.96 µM
- GI50 (HCT-15 colon): 1.78 µM
- TGI (HCT-15 colon): 5.28 µM
- GI50 (LOX IMVI melanoma): 1.39 µM
- TGI (LOX IMVI melanoma): 2.88 µM
- GI50 (UACC-62 melanoma): 1.71 µM
- TGI (UACC-62 melanoma): 3.87 µM
- GI50 (DU-145 prostate): 3.41 µM
- TGI (DU-145 prostate): 10.7 µM
- GI50 (EKVX NSCLC): 11.2 µM
- TGI (EKVX NSCLC): 28.2 µM
- GI50 (786-0 renal): 1.78 µM
- TGI (786-0 renal): 3.76 µM
- GI50 (HT29 colon): 2.16 µM
- TGI (HT29 colon): 4.76 µM
- GI50 (KM12 colon): 2.62 µM
- TGI (KM12 colon): 6.94 µM
- GI50 (SNB-19 CNS): 3.14 µM
- TGI (SNB-19 CNS): 12.5 µM
- GI50 (RPMI-8226 leukemia): 2.44 µM
- TGI (RPMI-8226 leukemia): > 22.8 µM
- GI50 (MALME-3M melanoma): 1.85 µM
- TGI (MALME-3M melanoma): 3.75 µM
- GI50 (UO-31 renal): 3.62 µM
- TGI (UO-31 renal): 9.13 µM
- GI50 (SNB-75 CNS): 2.42 µM
- TGI (SNB-75 CNS): 8.22 µM
- GI50 (TK-10 renal): 2.04 µM
- TGI (TK-10 renal): 4.69 µM
- GI50 (T-47D breast): 1.89 µM
- TGI (T-47D breast): 5.37 µM
- GI50 (MOLT-4 leukemia): 0.666 µM
- TGI (MOLT-4 leukemia): > 27.3 µM
